Measurements reported in PubChem BioAssay (NCI).
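In this assay, cells in 96-well plates receive the compound at five concentrations for 48 hours. Endpoints are linearly interpolated between the surrounding concentrations. The concentration for full growth arrest is given as TGI.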

System: SN12K1 renal
Assay: growth of human tumour cells (NCI), 48 h

CN(N=O)C(=O)N[C@@H](C=O)[C@@H](O)[C@H](O)[C@H](O)CO
TGI: 546 µM
